Test results: ChEMBL document CHEMBL1806436, “Structure--activity relationship studies of novel arylsulfonylimidazolidinones for their anticancer activity” (Eur J Med Chem, 2011)

Assays:
[1] = tested on: A549; test: Anticancer activity against human A549 cells by MTT assay; format: functional, cell-based
[2] = tested on: COLO 205; test: Anticancer activity against human COLO205 cells by MTT assay; format: functional, cell-based
[3] = Anticancer activity against human KATO III cells by MTT assay; format: functional, cell-based, KATO III cell
[4] = tested on: K562; test: Anticancer activity against human K562 cells by MTT assay; format: functional, cell-based
[5] = tested on: SK-OV-3; test: Anticancer activity against human SKOV3 cells by MTT assay; format: functional, cell-based
[6] = Anticancer activity against mouse P388D1 cells by MTT assay; format: functional, cell-based
[7] = tested on: Mus musculus; test: Toxicity in human NCI-H23 cells xenografted BALB/c nu/nu mouse assessed as change in body weight at 65 mg/kg, po administered every alternative day for 12 days measured on day 20 (reference value: 1.2 g); format: organism-based; design: dose 65 mg/kg, route oral; conditions: in vivo, 288 h
[8] = tested on: Mus musculus; test: Toxicity in human SW620 cells xenografted BALB/c nu/nu mouse assessed as change in body weight at 65 mg/kg, po administered every alternative day for 12 days measured on day 20 (reference value: 1.1 g); format: organism-based, SW-620; design: dose 65 mg/kg, route oral; conditions: in vivo, 288 h
[9] = tested on: NCI-H23; test: Anticancer activity against human NCI-H23 cells xenografted in BALB/c nu/nu mouse assessed as tumor growth inhibition at 65 mg/kg, po every alternative day for 12 days measured on day 19; format: functional; conditions: read-out: TGI
[10] = tested on: SW-620; test: Anticancer activity against human SW620 cells xenografted in BALB/c nu/nu mouse assessed as tumor growth inhibition at 65 mg/kg, po every alternative day for 12 days measured on day 19; format: functional; conditions: read-out: TGI
[11] = tested on: Mus musculus; test: Toxicity in human NCI-H23 cells xenografted BALB/c nu/nu mouse assessed as change in body weight at 1 mg/kg, ip qd for 11 days followed by 2 mg/kg, ip qd on day 12 to day 14 and 3 mg/kg, ip qd on day 15 to day 18 measured on day 20 (reference value: 1.2 g); format: organism-based; conditions: in vivo, 264 h
[12] = tested on: Mus musculus; test: Toxicity in human SW620 cells xenografted BALB/c nu/nu mouse assessed as change in body weight at 1 mg/kg, ip qd for 11 days followed by 2 mg/kg, ip qd on day 12 to day 14 and 3 mg/kg, ip qd on day 15 to day 18 measured on day 20 (reference value: 1.1 g); format: organism-based, SW-620; conditions: in vivo, 264 h
[13] = tested on: NCI-H23; test: Anticancer activity against human NCI-H23 cells xenografted in BALB/c nu/nu mouse assessed as tumor growth inhibition at 1 mg/kg, ip qd for 11 days followed by 2 mg/kg, ip qd on day 12 to day 14 and 3 mg/kg, ip qd on day 15 to day 18 measured on day 19; format: functional
[14] = tested on: SW-620; test: Anticancer activity against human SW620 cells xenografted in BALB/c nu/nu mouse assessed as tumor growth inhibition at 1 mg/kg, ip qd for 11 days followed by 2 mg/kg, ip qd on day 12 to day 14 and 3 mg/kg, ip qd on day 15 to day 18 measured on day 19; format: functional

O=C(CCl)NC(=O)N1CCCc2cc(S(=O)(=O)N3CC(c4ccccc4)NC3=O)ccc21 (stereo not given)
IC50 [1]: 0.449 µM
IC50 [2]: 9.9 µM
IC50 [3]: 2.54 µM
IC50 [4]: 0.515 µM
IC50 [5]: 6.14 µM
IC50 [6]: 3.87 µM
Activity [7]: -0.6 g
Activity [8]: 1 g
inhibition in vivo at 65 mg/kg [9]: 58.5%
inhibition in vivo at 65 mg/kg [10]: 67%

C=CCOC(=O)N1CCCc2cc(S(=O)(=O)N3CC(c4ccccc4)NC3=O)ccc21 (stereo not given)
IC50 [1]: 4.31 µM
IC50 [2]: 6.58 µM
IC50 [3]: 5.05 µM
IC50 [4]: 0.473 µM
IC50 [5]: 2.75 µM
IC50 [6]: 0.945 µM

O=C(CCl)N1CCCc2cc(S(=O)(=O)N3CC(c4ccccc4)NC3=O)ccc21 (stereo not given)
IC50 [2]: 11.2 µM
IC50 [3]: 3.46 µM
IC50 [4]: 1.09 µM

CCCOC(=O)N1CCCc2cc(S(=O)(=O)N3CC(c4ccccc4)NC3=O)ccc21 (stereo not given)
IC50 [1]: 1.03 µM
IC50 [2]: 1.42 µM
IC50 [3]: 3.3 µM
IC50 [4]: > 20 µM
IC50 [5]: 3.92 µM
IC50 [6]: 2.02 µM

COc1ccc(NC(=O)N2CCCc3cc(S(=O)(=O)N4CC(C)(c5ccccc5)NC4=O)ccc32)cc1 (stereo not given)
IC50 [1]: 5.3 µM
IC50 [2]: > 20 µM
IC50 [4]: 12.4 µM
IC50 [5]: 9.47 µM
IC50 [6]: 15.9 µM

O=C(OCCCl)N1CCCc2cc(S(=O)(=O)N3CC(c4ccccc4)NC3=O)ccc21 (stereo not given)
IC50 [1]: > 20 µM
IC50 [2]: 2.82 µM
IC50 [3]: 8.68 µM
IC50 [4]: 10.6 µM
IC50 [5]: 9.8 µM
IC50 [6]: 1.21 µM

NC(=O)N1CCCc2cc(S(=O)(=O)N3CC(c4ccccc4)NC3=O)ccc21 (stereo not given)
IC50 [1]: 2.54 µM
IC50 [2]: > 20 µM
IC50 [3]: 3.59 µM
IC50 [4]: 3.66 µM
IC50 [5]: > 20 µM
IC50 [6]: 12.3 µM

CSc1ccc(NC(=O)N2CCCc3cc(S(=O)(=O)N4CC(C)(c5ccccc5)NC4=O)ccc32)cc1 (stereo not given)
IC50 [1]: > 20 µM
IC50 [2]: > 20 µM
IC50 [4]: > 20 µM
IC50 [5]: > 20 µM
IC50 [6]: > 20 µM

O=C(Nc1ccc(Cl)cc1)NS(=O)(=O)c1ccc2c(c1)CCC2 [SULOFENUR]
IC50 [1]: > 20 µM
IC50 [2]: 23.1 µM
IC50 [3]: 31.4 µM
IC50 [4]: 19.2 µM
IC50 [5]: 78.2 µM
IC50 [6]: > 100 µM

CC(C)COC(=O)N1CCCc2cc(S(=O)(=O)N3CC(c4ccccc4)NC3=O)ccc21 (stereo not given)
IC50 [1]: > 20 µM
IC50 [2]: 3.72 µM
IC50 [3]: 2.75 µM
IC50 [4]: 2.38 µM
IC50 [5]: 5.65 µM
IC50 [6]: 1.25 µM

COC(=O)N1CCCc2cc(S(=O)(=O)N3CC(c4ccccc4)NC3=O)ccc21 (stereo not given)
IC50 [1]: 1.15 µM
IC50 [2]: 4.01 µM
IC50 [3]: 16.5 µM
IC50 [4]: > 20 µM
IC50 [5]: 3.48 µM
IC50 [6]: 2.26 µM

O=C(NC1CCCCC1)N1CCCc2cc(S(=O)(=O)N3CC(c4ccccc4)NC3=O)ccc21 (stereo not given)
IC50 [1]: 0.231 µM
IC50 [2]: 3.89 µM
IC50 [3]: 8.92 µM
IC50 [4]: 0.813 µM
IC50 [5]: 1.84 µM
IC50 [6]: 8.16 µM
Activity [7]: 1.6 g
Activity [8]: 2 g
inhibition in vivo at 65 mg/kg [9]: 65.2%
inhibition in vivo at 65 mg/kg [10]: 72.6%

O=C1NC(c2ccccc2)CN1S(=O)(=O)c1ccc2c(c1)CCCN2 (stereo not given)
IC50 [1]: > 20 µM
IC50 [2]: 7.23 µM
IC50 [3]: > 20 µM
IC50 [4]: > 20 µM
IC50 [5]: 10.4 µM
IC50 [6]: 4.25 µM

COc1cccc2c1C(=O)c1c(O)c3c(c(O)c1C2=O)C[C@@](O)(C(=O)CO)C[C@@H]3O[C@H]1C[C@H](N)[C@H](O)[C@H](C)O1 [DOXORUBICIN]
IC50 [2]: 0.4 µM
IC50 [3]: 4.38 µM
IC50 [4]: 0.198 µM
IC50 [5]: 2.95 µM
IC50 [6]: 0.338 µM
Activity [11]: -1.6 g
Activity [12]: -2.3 g
TGI [13]: 39.6%
TGI [14]: 45%

CCOC(=O)N1CCCc2cc(S(=O)(=O)N3CC(c4ccccc4)NC3=O)ccc21 (stereo not given)
IC50 [1]: 0.344 µM
IC50 [2]: 2.78 µM
IC50 [3]: 11.2 µM
IC50 [4]: > 20 µM
IC50 [5]: 2.88 µM
IC50 [6]: 1.43 µM

O=C1NC(c2ccccc2)CN1S(=O)(=O)c1ccc2c(c1)CCCN2C(=O)C(F)(F)F (stereo not given)
IC50 [1]: > 20 µM
IC50 [2]: 10.7 µM
IC50 [3]: 13.1 µM
IC50 [4]: > 20 µM
IC50 [5]: 19.6 µM
IC50 [6]: 4.72 µM

O=C(c1ccccc1)N1CCCc2cc(S(=O)(=O)N3CC(c4ccccc4)NC3=O)ccc21 (stereo not given)
IC50 [1]: 8.14 µM
IC50 [2]: 19.3 µM
IC50 [3]: 14.3 µM
IC50 [4]: 1.22 µM
IC50 [5]: 8.56 µM
IC50 [6]: 5.34 µM

CC1(c2ccccc2)CN(S(=O)(=O)c2ccc3c(c2)CCCN3C(=O)C(F)(F)F)C(=O)N1 (stereo not given)
IC50 [1]: > 20 µM
IC50 [2]: > 20 µM
IC50 [3]: > 20 µM
IC50 [4]: > 20 µM
IC50 [5]: > 20 µM
IC50 [6]: > 20 µM

CCCCOC(=O)N1CCCc2cc(S(=O)(=O)N3CC(c4ccccc4)NC3=O)ccc21 (stereo not given)
IC50 [1]: > 20 µM
IC50 [2]: 4.11 µM
IC50 [3]: 4.01 µM
IC50 [4]: 3.68 µM
IC50 [5]: 9.57 µM
IC50 [6]: 2.08 µM
